Results published in patent US10899747B2, “Biaryl piperidine amide compounds and methods of use thereof” (Athenex, Inc., priority 2017, dated 2021).

tested on: IL-2; test: PHA-IL2 (cell activation and cytokine analysis); assay type: cell-based; details: 50% inhibition concentration class
Experimental: Cells to be tested may include, but are not limited to, a) Jurkat (a transformed human T cell leukemia), b) whole blood isolated from human or rodent sources, c) peripheral blood mononuclear cells (PBMC) freshly isolated from human or rodent whole blood, or d) purified fractions of PBMC (e.g., CD4 T cells). Cells are plated in 96-well plates at a final density of 1.0-2.0×10^6 cells/ml in 150 ul of assay medium (RPMI+0.5% fetal calf serum). Test compounds are included at a final concentration of ≤20 uM and generally pre-incubated with cells for 30 minutes prior to stimulation. An appropriate stimulus is added, including but not limited to, a) phytohemagglutinin (PHA), b) phorbol myristate acetate (PMA) and ionomycin, or c) stimulatory antibodies to the T cell receptor (TCR) complex (e.g., anti-CD3ε) and CD28. Cell cultures are stimulated for 24-48 hours in a humidified incubator (37 degrees C./5% CO2). A fraction of the culture supernatant is than harvested from each well and assayed for the presence of appropriate cytokine using standard ELISA. Cytokines to be analyzed may include IL-2, IL-4, IL-10, IL-17, IL-22, IFNγ, and/or TNFα. If required, the number of cytokine producing cells can be determined using intracellular staining and flow cytometry. […]

SMILES | IC50 [µM]
CC(Oc1ccccc1-c1ccccc1)C(=O)N1CCC(CCc2ccc3c(c2)OCO3)CC1 (stereo not shown) [Compound 153] | 10 to 50
CCCC(Oc1ccccc1-c1ccccc1)C(=O)N1CCC(CCc2ccc3c(c2)OCO3)CC1 (stereo not shown) [Compound 154] | 10 to 50
O=C(O)c1ccc(-c2ccccc2OCC(=O)N2CCC(CCc3ccc4c(c3)OCO4)CC2)cc1 [Compound 157] | 10 to 50
O=C(O)c1cccc(-c2ccccc2OCC(=O)N2CCC(CCc3ccc4c(c3)OCO4)CC2)c1 [Compound 158] | 10 to 50
Cc1cccc(-c2ccccc2OCC(=O)N2CCC(CCc3ccc4c(c3)OCO4)CC2)c1 [Compound 167] | 1 to 10
CCN(CC)C(=O)c1ccc(-c2ccccc2OCC(=O)N2CCC(CCc3ccc4c(c3)OCO4)CC2)cc1 [Compound 168] | 1 to 10
O=C(COc1ccccc1-c1ccc(O)cc1)N1CCC(CCc2ccc3c(c2)OCO3)CC1 [Compound 170] | 1 to 10
CN(C)CCCOc1ccc(-c2ccccc2OCC(=O)N2CCC(CCc3ccc4c(c3)OCO4)CC2)cn1 [Compound 171] | 10 to 50
O=C(NCCO)c1cccc(-c2ccccc2OCC(=O)N2CCC(CCc3ccc4c(c3)OCO4)CC2)c1 [Compound 172] | 10 to 50
O=C(COc1ccccc1-c1ccc2c(c1)OCCO2)N1CCC(CCc2ccc3c(c2)OCO3)CC1 [Compound 173] | 1 to 10
O=C(COc1ccccc1-c1ccc2nonc2c1)N1CCC(CCc2ccc3c(c2)OCO3)CC1 [Compound 174] | 1 to 10
COc1ccc(CCC2(O)CCN(C(=O)COc3ccccc3-c3ccccc3)CC2)cc1 [Compound 175] | 10 to 50
COc1ccc(CCC2(O)CCN(C(=O)COc3ccc(F)cc3-c3ccccc3)CC2)cc1 [Compound 176] | 10 to 50
O=C(COc1ccccc1-c1ccccc1F)N1CCC(CCc2ccc3c(c2)OCO3)CC1 [Compound 177] | 1 to 10
O=C(COc1ccccc1-c1ccc(OC(F)(F)F)cc1)N1CCC(CCc2ccc3c(c2)OCO3)CC1 [Compound 178] | 1 to 10
O=C(COc1ccccc1-c1cccc(OC(F)(F)F)c1)N1CCC(CCc2ccc3c(c2)OCO3)CC1 [Compound 179] | 1 to 10

SMILES | IC50 [µM]
COc1ccccc1-c1ccccc1OCC(=O)N1CCC(CCc2ccc3c(c2)OCO3)CC1 [Compound 180] | 1 to 10
NS(=O)(=O)c1ccc(-c2ccccc2OCC(=O)N2CCC(CCc3ccc4c(c3)OCO4)CC2)cc1 [Compound 181] | 10 to 50
O=C(NCCO)c1ccc(-c2ccccc2OCC(=O)N2CCC(CCc3ccc4c(c3)OCO4)CC2)cc1 [Compound 182] | 10 to 50
NC(=O)c1ccc(-c2ccccc2OCC(=O)N2CCC(CCc3ccc4c(c3)OCO4)CC2)cc1 [Compound 183] | 10 to 50
O=C(COc1ccccc1-c1ccccc1OC(F)(F)F)N1CCC(CCc2ccc3c(c2)OCO3)CC1 [Compound 184] | 10 to 50
CCN(CC)C(=O)c1cccc(-c2ccccc2OCC(=O)N2CCC(CCc3ccc4c(c3)OCO4)CC2)c1 [Compound 185] | 10 to 50
CCOc1ccc(-c2ccccc2OCC(=O)N2CCC(CCc3ccc4c(c3)OCO4)CC2)cc1 [Compound 186] | 1 to 10
O=C(COc1ccccc1-c1cccc(F)c1)N1CCC(CCc2ccc3c(c2)OCO3)CC1 [Compound 187] | 1 to 10
COc1ccc(-c2ccccc2OCC(=O)N2CCC(CCc3ccc4c(c3)OCO4)CC2)cc1 [Compound 189] | 1 to 10
COc1ncccc1-c1ccccc1OCC(=O)N1CCC(CCc2ccc3c(c2)OCO3)CC1 [Compound 191] | 1 to 10
N#Cc1cccc(-c2ccccc2OCC(=O)N2CCC(CCc3ccc4c(c3)OCO4)CC2)c1 [Compound 192] | 1 to 10
O=C(COc1ccccc1-c1cccnc1)N1CCC(CCc2ccc3c(c2)OCO3)CC1 [Compound 194] | 1 to 10
Nc1ccc(-c2ccccc2OCC(=O)N2CCC(CCc3ccc4c(c3)OCO4)CC2)cc1 [Compound 195] | 10 to 50
O=C(O)c1cncc(-c2ccccc2OCC(=O)N2CCC(CCc3ccc4c(c3)OCO4)CC2)c1 [Compound 196] | 10 to 50
Cc1ccc(-c2ccccc2OCC(=O)N2CCC(CCc3ccc4c(c3)OCO4)CC2)cc1 [Compound 202] | 1 to 10
C=C(C)c1cccc(-c2ccccc2OCC(=O)N2CCC(CCc3ccc4c(c3)OCO4)CC2)c1 [Compound 205] | 1 to 10

The remaining lines, values ahead:

IC50 [µM] | SMILES
< 1 | O=C(COc1ccccc1-c1ccccc1)N1CCC(CCc2cc(C(F)(F)F)cc(C(F)(F)F)c2)CC1 [Compound 117]
< 1 | O=C(COc1ccccc1-c1ccccc1)N1CCC(CCc2ccc(F)c(F)c2)CC1 [Compound 120]
1 to 10 | COc1ccccc1CCC1CCN(C(=O)COc2ccccc2-c2ccccc2)CC1 [Compound 126]
1 to 10 | Cc1ccccc1-c1ccccc1OCC(=O)N1CCC(CCc2ccc3c(c2)OCO3)CC1 [Compound 155]
1 to 10 | CCc1ccc(-c2ccccc2OCC(=O)N2CCC(CCc3ccc4c(c3)OCO4)CC2)cc1 [Compound 156]
1 to 10 | CCOC(=O)c1cccc(-c2ccccc2OCC(=O)N2CCC(CCc3ccc4c(c3)OCO4)CC2)c1 [Compound 159]
1 to 10 | O=C(COc1ccccc1-c1cccc(O)c1)N1CCC(CCc2ccc3c(c2)OCO3)CC1 [Compound 160]
1 to 10 | O=C(COc1ccccc1-c1ccnc(N2CCOCC2)c1)N1CCC(CCc2ccc3c(c2)OCO3)CC1 [Compound 161]
1 to 10 | NC(=O)c1cccc(-c2ccccc2OCC(=O)N2CCC(CCc3ccc4c(c3)OCO4)CC2)c1 [Compound 162]
1 to 10 | COc1cccc(-c2ccccc2OCC(=O)N2CCC(CCc3ccc4c(c3)OCO4)CC2)c1 [Compound 163]
1 to 10 | O=C(COc1ccccc1-c1ccc(F)cc1)N1CCC(CCc2ccc3c(c2)OCO3)CC1 [Compound 164]
< 1 | O=C(COc1ccccc1-c1ccccc1Cl)N1CCC(CCc2ccc3c(c2)OCO3)CC1 [Compound 165]
< 1 | N#Cc1ccc(-c2ccccc2OCC(=O)N2CCC(CCc3ccc4c(c3)OCO4)CC2)cc1 [Compound 166]
< 1 | N#Cc1cc(-c2ccccc2OCC(=O)N2CCC(CCc3ccc4c(c3)OCO4)CC2)ccc1F [Compound 188]
< 1 | O=C(COc1ccccc1-c1ccc(Cl)cc1)N1CCC(CCc2ccc3c(c2)OCO3)CC1 [Compound 190]
< 1 | O=C(COc1ccccc1-c1ccc(F)nc1)N1CCC(CCc2ccc3c(c2)OCO3)CC1 [Compound 193]
< 1 | N#CCc1ccc(-c2ccccc2OCC(=O)N2CCC(CCc3ccc4c(c3)OCO4)CC2)cc1 [Compound 197]
< 1 | O=C(c1ccccc1)c1ccc(-c2ccccc2OCC(=O)N2CCC(CCc3ccc4c(c3)OCO4)CC2)cc1 [Compound 198]
< 1 | COc1ccc(-c2ccccc2OCC(=O)N2CCC(CCc3ccc4c(c3)OCO4)CC2)cn1 [Compound 199]
< 1 | O=C(COc1ccccc1-c1cc(F)c(F)c(F)c1)N1CCC(CCc2ccc3c(c2)OCO3)CC1 [Compound 200]
< 1 | O=C(COc1ccccc1-c1cccc(Cl)c1)N1CCC(CCc2ccc3c(c2)OCO3)CC1 [Compound 201]
< 1 | O=C(COc1ccccc1-c1ccc(C(F)(F)F)cc1)N1CCC(CCc2ccc3c(c2)OCO3)CC1 [Compound 203]
< 1 | O=C(COc1ccccc1-c1cccc(C(F)(F)F)c1)N1CCC(CCc2ccc3c(c2)OCO3)CC1 [Compound 204]
